Data on three molecules can be found in article PMC8231556, “Inhibiting Endothelial Cell Function in Normal and Tumor Angiogenesis Using BMP Type I Receptor Macrocyclic Kinase Inhibitors” (Cancers, 2021).

Each structure is given as a SMILES string.

Assay in all cases: radiometric kinase profiling (33 PanQinase)
Type in all cases: biochemical

One test deals with T1, ABL1 (Homo sapiens, UniProt P00519).
T1 construct: purchased Proqinase, Germany
As to conditions: read-out: Inhibitory effect (%) ABL1. How it is done:
(§1) The kinase inhibition profile of the compounds was determined by testing 96 protein kinases’ activity using a radiometric protein kinase assay (33 PanQinase® Activity Assay, Proqinase, Germany). In brief, 10 µL of non-radioactive ATP solution (in H2O), 25 µL of assay buffer/[γ-33 P]-ATP mixture, 5 µL of 0.1 μM the tested compound in 10% DMSO and 10 µL of enzyme/substrate were mixed in 96-well FlashPlatesTM (Perkin Elmer, Boston, MA, USA). The reaction was conducted at 30 °C for 60 min. To stop the reaction, 50 µL of 2% (v/v) H3PO4 was added into the protein kinase reaction cocktails. After which, with 200 µL 0.9% (w/v) NaCl twice, the incorporation of ^33 Pi (counting of “cpm”) was determined with a microplate scintillation counter (Wallac Microbeta, Boston, MA, USA). All protein kinase assays were performed using a BeckmanCoulter Biomek 2000/SL robotic system (Brea, CA, USA). The residual activity (in %) for each compound was normalized to 100% enzyme activity (untreated control) and background (negative control).

A further test deals with T2, AXL (Homo sapiens, UniProt P30530).
T2 construct: purchased Proqinase, Germany
T2 sequence (P30530 26-894): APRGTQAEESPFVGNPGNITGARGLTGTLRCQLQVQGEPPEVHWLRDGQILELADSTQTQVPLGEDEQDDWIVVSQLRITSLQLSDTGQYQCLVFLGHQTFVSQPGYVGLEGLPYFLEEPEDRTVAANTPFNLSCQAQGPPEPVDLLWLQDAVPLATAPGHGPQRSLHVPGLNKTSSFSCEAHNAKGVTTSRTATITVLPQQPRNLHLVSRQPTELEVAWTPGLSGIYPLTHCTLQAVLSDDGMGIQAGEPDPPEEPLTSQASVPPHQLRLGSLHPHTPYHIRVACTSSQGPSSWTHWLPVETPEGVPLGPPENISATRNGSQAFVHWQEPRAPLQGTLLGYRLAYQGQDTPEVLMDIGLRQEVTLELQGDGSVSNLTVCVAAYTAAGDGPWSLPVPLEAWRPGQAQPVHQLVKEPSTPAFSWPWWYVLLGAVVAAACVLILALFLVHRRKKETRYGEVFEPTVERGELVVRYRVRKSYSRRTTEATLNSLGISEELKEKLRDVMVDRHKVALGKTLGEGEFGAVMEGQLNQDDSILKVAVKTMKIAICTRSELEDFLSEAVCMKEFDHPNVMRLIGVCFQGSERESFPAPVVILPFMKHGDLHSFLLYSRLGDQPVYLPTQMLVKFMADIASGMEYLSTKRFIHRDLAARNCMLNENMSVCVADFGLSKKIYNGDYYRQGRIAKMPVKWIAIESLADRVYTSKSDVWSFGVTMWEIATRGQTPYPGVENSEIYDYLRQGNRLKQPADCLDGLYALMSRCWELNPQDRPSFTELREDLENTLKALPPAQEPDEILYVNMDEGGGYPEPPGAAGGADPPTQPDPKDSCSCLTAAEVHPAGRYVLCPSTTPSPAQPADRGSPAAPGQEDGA
As to conditions: read-out: Inhibitory effect (%) AXL. How it is done:
as §1

A further test deals with T3, CAMK1D (Homo sapiens, UniProt Q8IU85).
T3 construct: purchased Proqinase, Germany
As to conditions: read-out: Inhibitory effect (%) CAMK1D. How it is done:
as §1

The target of the next test is T4, CAMK2D (Homo sapiens, UniProt Q13557).
T4 construct: purchased Proqinase, Germany
As to conditions: read-out: Inhibitory effect (%) CAMK2D. Here is the method: as §1

Another test has as its target T5, CHEK1 (Homo sapiens, UniProt O14757).
T5 construct: purchased Proqinase, Germany
T5 sequence (O14757 1-476): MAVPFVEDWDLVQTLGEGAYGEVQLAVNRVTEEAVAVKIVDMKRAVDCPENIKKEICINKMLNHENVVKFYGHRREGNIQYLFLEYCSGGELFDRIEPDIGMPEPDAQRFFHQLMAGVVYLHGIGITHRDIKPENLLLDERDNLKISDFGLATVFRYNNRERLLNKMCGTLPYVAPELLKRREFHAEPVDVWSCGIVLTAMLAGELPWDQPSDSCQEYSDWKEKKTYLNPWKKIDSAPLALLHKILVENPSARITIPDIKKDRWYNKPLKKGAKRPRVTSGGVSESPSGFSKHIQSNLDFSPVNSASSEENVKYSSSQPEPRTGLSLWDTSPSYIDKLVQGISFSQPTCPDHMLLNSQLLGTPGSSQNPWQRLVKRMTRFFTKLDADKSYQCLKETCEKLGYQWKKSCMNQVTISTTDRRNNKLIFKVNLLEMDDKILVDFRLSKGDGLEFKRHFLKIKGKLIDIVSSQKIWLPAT
As to conditions: read-out: Inhibitory effect (%) CHEK1. Here is the method:
as §1

The target of the next test is T6, CSNK1A1 (Homo sapiens, UniProt P48729).
T6 construct: purchased Proqinase, Germany
As to conditions: read-out: Inhibitory effect (%) CSNK1A1. Here is the method: as §1

The next test has as its target T7, EIF2AK1 (Homo sapiens, UniProt Q9BQI3).
T7 construct: purchased Proqinase, Germany
As to conditions: read-out: Inhibitory effect (%) EIF2AK1. How it is done: as §1

For the next test, the target named is T8, FYN (Homo sapiens, UniProt P06241).
T8 construct: purchased ProQinase (33PanQinase Activity Assay)
As to conditions: read-out: Inhibitory effect (%) FYN. Here is the method:
as §1

For a further test, the target named is T9, MAP3K10 (Homo sapiens, UniProt Q02779).
T9 construct: purchased ProQinase (33PanQinase Activity Assay)
As to conditions: read-out: Inhibitory effect (%) MAP3K10. Here is the method:
as §1

The target in another test is T10, MAPK14 (Homo sapiens, UniProt Q16539).
T10 construct: purchased ProQinase (33PanQinase Activity Assay)
As to conditions: read-out: Inhibitory effect (%) MAPK14. Here is the method:
as §1

A further test deals with T11, MAPKAPK2 (Homo sapiens, UniProt P49137).
T11 construct: purchased ProQinase (33PanQinase Activity Assay)
As to conditions: read-out: Inhibitory effect (%) MAPKAPK2. Here is the method:
as §1

The target in another test is T12, PDGFRA (Homo sapiens, UniProt P16234).
T12 construct: purchased ProQinase (33PanQinase Activity Assay)
As to conditions: read-out: Inhibitory effect (%) PDGFRA. How it is done: as §1

The next test deals with T13, PRKACA (Homo sapiens, UniProt P17612).
T13 construct: purchased ProQinase (33PanQinase Activity Assay)
As to conditions: read-out: Inhibitory effect (%) PRKACA. Here is the method:
as §1

The target of a further test is T14, RPS6KA1 (Homo sapiens, UniProt Q15418).
T14 construct: purchased ProQinase (33PanQinase Activity Assay)
As to conditions: read-out: Inhibitory effect (%) RPS6KA1. How it is done: as §1

Another test addresses T15, SRC (Homo sapiens, UniProt P12931).
T15 construct: purchased ProQinase (33PanQinase Activity Assay)
As to conditions: read-out: Inhibitory effect (%) SRC. Here is the method:
as §1

T3 sequence (Q8IU85 whole entry): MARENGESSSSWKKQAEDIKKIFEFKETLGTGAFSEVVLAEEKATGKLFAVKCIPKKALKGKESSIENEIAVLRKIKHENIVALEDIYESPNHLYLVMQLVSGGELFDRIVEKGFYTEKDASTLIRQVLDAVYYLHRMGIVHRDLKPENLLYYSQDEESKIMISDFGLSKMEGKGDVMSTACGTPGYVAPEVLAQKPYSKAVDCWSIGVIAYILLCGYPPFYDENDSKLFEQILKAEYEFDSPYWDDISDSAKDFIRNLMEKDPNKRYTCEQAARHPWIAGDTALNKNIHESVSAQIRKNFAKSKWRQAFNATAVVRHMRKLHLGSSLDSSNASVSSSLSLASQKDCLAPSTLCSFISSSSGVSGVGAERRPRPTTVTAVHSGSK
T8 sequence (P06241 whole entry): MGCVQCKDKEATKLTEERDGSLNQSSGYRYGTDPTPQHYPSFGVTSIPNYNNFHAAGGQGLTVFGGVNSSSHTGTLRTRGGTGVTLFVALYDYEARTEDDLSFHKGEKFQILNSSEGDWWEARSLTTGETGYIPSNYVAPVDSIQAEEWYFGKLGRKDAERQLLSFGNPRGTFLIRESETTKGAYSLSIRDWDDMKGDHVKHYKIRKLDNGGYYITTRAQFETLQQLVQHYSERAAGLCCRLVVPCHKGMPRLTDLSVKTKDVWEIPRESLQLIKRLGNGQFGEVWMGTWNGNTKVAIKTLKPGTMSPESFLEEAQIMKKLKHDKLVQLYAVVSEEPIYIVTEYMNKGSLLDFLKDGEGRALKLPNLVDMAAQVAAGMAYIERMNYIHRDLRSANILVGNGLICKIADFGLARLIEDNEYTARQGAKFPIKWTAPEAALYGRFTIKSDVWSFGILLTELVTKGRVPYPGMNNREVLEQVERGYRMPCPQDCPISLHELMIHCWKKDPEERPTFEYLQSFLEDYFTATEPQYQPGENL
T15 sequence (P12931 whole entry): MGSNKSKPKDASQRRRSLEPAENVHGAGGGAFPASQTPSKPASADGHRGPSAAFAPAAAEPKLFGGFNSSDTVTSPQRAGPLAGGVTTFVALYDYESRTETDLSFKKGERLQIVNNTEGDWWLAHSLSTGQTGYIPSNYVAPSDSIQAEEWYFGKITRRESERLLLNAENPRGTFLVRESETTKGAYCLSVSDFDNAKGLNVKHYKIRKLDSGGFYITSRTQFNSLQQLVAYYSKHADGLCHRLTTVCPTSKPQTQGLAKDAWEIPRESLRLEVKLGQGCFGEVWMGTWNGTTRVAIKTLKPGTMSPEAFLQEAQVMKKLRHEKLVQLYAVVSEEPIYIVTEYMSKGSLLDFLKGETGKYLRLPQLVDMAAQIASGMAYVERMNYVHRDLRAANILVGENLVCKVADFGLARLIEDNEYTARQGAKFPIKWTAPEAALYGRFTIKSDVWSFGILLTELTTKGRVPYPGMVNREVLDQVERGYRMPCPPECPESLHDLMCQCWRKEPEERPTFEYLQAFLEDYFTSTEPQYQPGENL
T4 sequence (Q13557 whole entry): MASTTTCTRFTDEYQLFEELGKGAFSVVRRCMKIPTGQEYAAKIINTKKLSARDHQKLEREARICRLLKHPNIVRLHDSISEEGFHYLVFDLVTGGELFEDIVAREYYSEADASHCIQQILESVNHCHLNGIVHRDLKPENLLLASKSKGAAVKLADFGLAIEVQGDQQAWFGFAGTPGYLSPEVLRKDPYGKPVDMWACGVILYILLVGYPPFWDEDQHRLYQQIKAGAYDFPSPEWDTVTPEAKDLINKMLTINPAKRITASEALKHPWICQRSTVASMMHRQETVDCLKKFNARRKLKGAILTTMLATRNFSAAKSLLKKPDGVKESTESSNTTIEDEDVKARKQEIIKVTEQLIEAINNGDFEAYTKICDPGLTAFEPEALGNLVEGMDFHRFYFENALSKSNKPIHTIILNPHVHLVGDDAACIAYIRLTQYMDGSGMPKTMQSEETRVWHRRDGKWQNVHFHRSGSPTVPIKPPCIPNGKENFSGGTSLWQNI
T14 sequence (Q15418 whole entry): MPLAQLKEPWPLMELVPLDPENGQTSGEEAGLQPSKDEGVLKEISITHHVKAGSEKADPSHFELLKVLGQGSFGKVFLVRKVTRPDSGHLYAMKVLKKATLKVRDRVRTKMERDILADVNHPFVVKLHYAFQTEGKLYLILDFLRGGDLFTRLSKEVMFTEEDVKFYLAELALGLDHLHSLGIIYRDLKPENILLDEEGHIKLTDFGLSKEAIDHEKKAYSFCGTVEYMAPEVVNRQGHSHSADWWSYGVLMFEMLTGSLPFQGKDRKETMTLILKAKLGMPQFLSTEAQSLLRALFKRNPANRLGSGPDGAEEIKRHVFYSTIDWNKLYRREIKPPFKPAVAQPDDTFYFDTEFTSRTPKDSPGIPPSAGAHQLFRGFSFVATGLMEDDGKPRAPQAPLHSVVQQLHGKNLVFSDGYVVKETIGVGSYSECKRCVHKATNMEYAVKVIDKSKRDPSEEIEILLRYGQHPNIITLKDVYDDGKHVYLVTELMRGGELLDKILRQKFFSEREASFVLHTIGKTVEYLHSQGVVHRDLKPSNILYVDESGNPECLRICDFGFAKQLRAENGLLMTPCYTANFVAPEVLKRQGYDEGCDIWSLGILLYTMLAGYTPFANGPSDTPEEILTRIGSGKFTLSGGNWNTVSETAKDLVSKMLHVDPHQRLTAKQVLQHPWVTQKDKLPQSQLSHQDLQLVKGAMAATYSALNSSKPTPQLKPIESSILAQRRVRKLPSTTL
T7 sequence (Q9BQI3 whole entry): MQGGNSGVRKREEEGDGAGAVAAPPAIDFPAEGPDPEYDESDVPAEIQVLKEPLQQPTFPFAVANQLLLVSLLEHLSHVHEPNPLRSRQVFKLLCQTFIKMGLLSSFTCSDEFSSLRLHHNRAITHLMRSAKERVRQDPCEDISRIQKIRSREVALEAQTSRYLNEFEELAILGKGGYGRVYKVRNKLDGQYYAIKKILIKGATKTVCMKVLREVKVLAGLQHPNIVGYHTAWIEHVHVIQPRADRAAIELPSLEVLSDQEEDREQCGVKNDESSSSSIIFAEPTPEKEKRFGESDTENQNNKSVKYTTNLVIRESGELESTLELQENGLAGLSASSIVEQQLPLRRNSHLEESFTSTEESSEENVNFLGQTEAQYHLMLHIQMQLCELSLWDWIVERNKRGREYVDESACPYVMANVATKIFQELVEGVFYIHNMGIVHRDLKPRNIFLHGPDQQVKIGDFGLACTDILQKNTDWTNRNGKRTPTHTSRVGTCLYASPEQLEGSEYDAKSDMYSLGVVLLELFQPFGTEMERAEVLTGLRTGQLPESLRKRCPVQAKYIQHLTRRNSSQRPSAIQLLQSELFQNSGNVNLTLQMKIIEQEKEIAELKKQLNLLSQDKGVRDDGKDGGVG
T12 sequence (P16234 24-1089): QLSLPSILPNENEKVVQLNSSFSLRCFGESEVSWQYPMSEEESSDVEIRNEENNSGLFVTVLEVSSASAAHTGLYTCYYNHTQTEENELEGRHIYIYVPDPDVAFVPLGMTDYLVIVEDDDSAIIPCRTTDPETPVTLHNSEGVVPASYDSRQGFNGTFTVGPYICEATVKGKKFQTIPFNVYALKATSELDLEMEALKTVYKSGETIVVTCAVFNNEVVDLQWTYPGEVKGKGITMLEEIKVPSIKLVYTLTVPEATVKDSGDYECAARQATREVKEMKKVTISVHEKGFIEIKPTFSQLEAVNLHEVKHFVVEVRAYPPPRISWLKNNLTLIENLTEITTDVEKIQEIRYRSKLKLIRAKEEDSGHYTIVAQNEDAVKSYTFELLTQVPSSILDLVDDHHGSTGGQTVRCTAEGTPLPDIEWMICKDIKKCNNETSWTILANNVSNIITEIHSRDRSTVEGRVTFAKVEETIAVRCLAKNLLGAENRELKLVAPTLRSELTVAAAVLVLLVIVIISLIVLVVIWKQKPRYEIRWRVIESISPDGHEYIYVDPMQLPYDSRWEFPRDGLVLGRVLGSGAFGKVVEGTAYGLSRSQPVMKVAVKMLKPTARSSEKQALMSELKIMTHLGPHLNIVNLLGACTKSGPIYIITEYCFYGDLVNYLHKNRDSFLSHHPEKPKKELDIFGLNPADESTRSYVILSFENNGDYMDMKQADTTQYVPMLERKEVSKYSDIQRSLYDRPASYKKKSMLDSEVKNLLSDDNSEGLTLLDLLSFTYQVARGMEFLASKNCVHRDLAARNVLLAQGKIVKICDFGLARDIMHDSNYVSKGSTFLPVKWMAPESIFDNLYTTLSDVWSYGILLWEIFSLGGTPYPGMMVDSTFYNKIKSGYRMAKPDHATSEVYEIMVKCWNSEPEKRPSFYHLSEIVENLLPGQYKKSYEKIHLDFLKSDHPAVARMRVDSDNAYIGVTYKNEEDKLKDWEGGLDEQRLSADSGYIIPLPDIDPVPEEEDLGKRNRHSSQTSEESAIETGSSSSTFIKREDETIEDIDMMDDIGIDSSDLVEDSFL
T10 sequence (Q16539 whole entry): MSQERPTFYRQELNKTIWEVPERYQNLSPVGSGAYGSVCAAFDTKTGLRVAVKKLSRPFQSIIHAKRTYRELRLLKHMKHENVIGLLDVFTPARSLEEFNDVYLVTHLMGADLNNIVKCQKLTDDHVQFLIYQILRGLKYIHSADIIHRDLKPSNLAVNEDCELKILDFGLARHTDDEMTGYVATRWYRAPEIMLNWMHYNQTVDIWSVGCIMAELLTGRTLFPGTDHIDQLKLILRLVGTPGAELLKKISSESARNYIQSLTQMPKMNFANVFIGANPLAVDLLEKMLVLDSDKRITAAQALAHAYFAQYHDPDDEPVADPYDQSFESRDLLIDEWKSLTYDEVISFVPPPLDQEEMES

Turning to `c1ccc2c(-c3cnn4cc(-c5ccc(N6CCNCC6)cc5)cnc34)ccnc2c1` [LDN-193189, reference compound], the inhibition at 0.1 µM at ABL1 is 12.5%; on AXL it was 10.7%; on CAMK1D, 4.59%; on CAMK2D it was -13.3%; on CHEK1, -34.6%; at CSNK1A1, -3.63%. For the same molecule, the inhibition at 0.1 µM at EIF2AK1 is -16.3%; on FYN, 28.1%; at MAP3K10, -26.4%; at MAPK14, 0.3%; at MAPKAPK2, 0.06%; on PDGFRA it was 3.63%. Further, the inhibition at 0.1 µM on PRKACA was -14.1%; at RPS6KA1, -10.4%; at SRC, 2.89%.

`CN1CCc2cccc(c2)Nc2nccc(n2)N2CCCc3cc(ccc32)C1` [OD16]: the inhibition at 0.1 µM on ABL1 was -20.1%; at AXL, -34.5%; at CAMK1D it was -5.9%; on CAMK2D, -3.48%; at CHEK1, 0.85%; at CSNK1A1, 0.99%. Also, the inhibition at 0.1 µM was -7.88% at EIF2AK1; -31% at FYN; 1.85% on MAP3K10; -3.1% on MAPK14; -14.6% on MAPKAPK2; -16% on PDGFRA. Also, the inhibition at 0.1 µM is -19.5% at PRKACA, 17% on RPS6KA1 and -19.4% at SRC.

As to `CN1CCC(=O)NCCNc2ccn3ncc(c3n2)-c2cccc(c2)C1` [OD29], the inhibition at 0.1 µM was 18.7% on ABL1; 5.83% on AXL; -7.41% on CAMK1D; 9.77% on CAMK2D; 4.25% at CHEK1; -2.21% on CSNK1A1. The inhibition at 0.1 µM on EIF2AK1 is -0.05%; at FYN, 24.6%; on MAP3K10, 1.57%; on MAPK14 it was 45.2%; on MAPKAPK2, -4.8%; at PDGFRA, -9.93%. Also, the inhibition at 0.1 µM on PRKACA is 9.09%; on RPS6KA1, 5.09%; on SRC, -4.82%.
